Here are results for six compounds from patent US4668684A, “Combination of flupirtin and anticholinergic acting spasmolytic” (priority 1985, dated 1987).

Usually LD50 stands for the dose at which mortality reaches 50%. The term ED50 denotes the dose at which the effect has come halfway, by size or by number of responders.

The test system of data set [1] is guinea pig small intestine. Put plainly: Spasmolytic effect on the guinea pig small intestine in situ (acetylcholine spasm). Format: in vivo. The note with it: for Spasmolytic activity (in words) / % Spasmolytic Effect: alone; for Spasmolytic activity (in words): intraduodenally; for % Spasmolytic Effect: negative value. Here is the method: A balloon catheter was introduced into the ileum of guinea pigs narcotized with urethane (1.8 g/kg subcutaneously) after tracheotomy (tying up a tracheal channel to make breathing easier) and the catheter filled with air. Rhythmic contractions were carried out by the intestine, the so-called […] (dependent upon filling), through which a pressure is exerted on the rubber balloon. The pressure […] changes were recorded on a linear recorder via a pressure recorder connected to the balloon catheter and a carrier frequency bridge (TF of Hellige Co.). On one there can be measured the spontaneous […], on the other the spasms released by superfusion of […] (acetylcholine iodide, barium chloride or carbachol). By previously giving the […] intravenously or intraduodenally the height of the spasms released is retarded and can be determined in percent spasmolysis compared to a starting value. There is given as spasmolytic effect or spasmolysis how great a percent of spasm is liberated by the spasmogen (e.g. acetylcholine iodide) compared to the value which originates from the spasmogen (on the same animal).

The nature of a further data set: in vivo. The following applies: mouse, po.
Data set [2] deals with gastrointestinal passage (guinea pigs). Put plainly: Carbon transport model (influence on the gastrointestinal passage). In kind it is in vivo, guinea pig. The note with it: alone; for ED50: peroral, linear regression; for Spasmolytic Effect, Retardation in %: negative value. The protocol: Relying on Komlus and Pet/o/ cz (and modifications) (1970) Arzneim Forsch. Volume 20, pages 1338-1357 guinea pigs received 30 minutes after being given the substance a 10% carbon suspension in demineralized water in a volume of 1 ml/animal dispensed with the stomach probe. 0.5 hours later the animals were killed and starting from the stomach there was measured on one animal the entire length of intestine, on the others the length of the stretch blackened by the carbon. The stretch changed by the carbon was calculated in percent of the entire length in order to compensate for the different intestinal lengths of the individual animals in the evaluation of the effect of the substance. The effect on the gastro-intestinal passage is given from the comparison between the control and the animals (average value) treated with the substances. Ascertaining the ED50 (dosage in mg/kg at which there is 50% retardation of the carbon transport) is by means of linear regression.
Retardation of carbon transport signifies spasmolytic effect. The greater this retardation the greater also is the spasmolytic effect.
*Calculation of the ED50 by means of linear regression

Data set [3] concerns gall bladder of the mouse. Put plainly: Gall bladder model on the mouse, spasmolytic effect. Format: in vivo, NMRI-Mouse. The note with it: alone; for ED50: Mus musculus, po, peroral, linear regression. The protocol:
The experiment is carried out relying on the methods of […] and Toson, J. Pharmacol. Methods Volume 7, pages 193 et. seq. (1982). The principle of this method is the gravimetric measurement of the gall bladder of the mouse. The gall bladder was stimulated through dispensation of egg yolk for delivery of bile. This delivery was carried out through natural spasms of the gall bladder. By previously dispensing a spasmolytically acting test material these spasms of the gall bladder were retarded and therewith likewise the delivery of bile. Thus the heavier the gall bladder is after dispensing the egg yolk the less bile it has delivered. The weight of the gall bladder in this test therefore is a measure of the spasmolytic effect of a material. […] The control animals received Methocel in the corresponding amount. […] Because of the evaluation 2 control groups must be present. […] The egg yolk suspension consisted of 3 parts by weight egg yolk in 7 parts by weight NaCl 0.9%. For this reason control group No. 1 also received 1 ml NaCl 0.9%. […] The gall bladder was prepared and weighed. The evaluation was carried out according to the formula: [(A-B)/(C-B)]×100=% Activity […]

Data set [4] concerns writhing syndrome (mouse). The data set can be described thus: Acetic acid test (Writhing test) on the mouse, analgetic effect. The following applies: alone; for ED50: Mus musculus, po, 0.5 h, read-out: ED50 after 30 minutes; for Analgetic Effect in %: average of 10 mice. In kind it is in vivo, NMRI-Mouse. Background: An intraperitoneal irritant provokes the stretching counted in writhing tests.

Structures can show the parent of a compound that is named as a salt. Where two headings read alike, the source gives them in different places.

Consider `CCOC(=O)Nc1ccc(NCc2ccc(F)cc2)nc1N` [Flupirtin, 2-amino-3-carbethoxyamino-6-(4-fluoro-benzylamino)-pyridine], for which, in data set [1], the “Spasmolytic activity (in words)” value was “no spasmolytic activity”. In “in vivo”, this compound registered a 50% lethal dose (LD50) of 552 mg/kg. Besides, the ED50 entry in data set [2] is “cannot be calculated”.

With `CCCC[N+]1(C)C2CC(OC(=O)C(CO)c3ccccc3)CC1C1OC12` (stereo not shown) [Butylscopolammonium bromide, butylscopolammonium bromide], the median effective dose (ED50) in data set [3] amounted to 117 mg/kg; in data set [4] (per os, linear regression), 1.5 mg/kg; in data set [2] (Cavia porcellus, po, read-out: ED50), 132 mg/kg. Moreover, the “Spasmolytic Effect in %” value in data set [3] (3.0 mg/kg peroral) is reported as 4.6%; in data set [3] (10.0 mg/kg peroral), 19.1%; in data set [3] (30.0 mg/kg peroral) it was 20.7%; in data set [3] (100.0 mg/kg peroral), 35.9%; in data set [3] (300.0 mg/kg peroral), 76.6%. In addition, the “Analgetic Effect in %” value in data set [4] (0.5 mg/kg per os) came to 22.4%; in data set [4] (1.0 mg/kg per os), 48.4%; in data set [4] (2.0 mg/kg per os), 64.6%; in data set [4] (4.0 mg/kg per os) it was 59.0%. Besides, the “% Spasmolytic Effect” value in data set [1] (50.0 mg/kg intraduodenally, 30 minutes after dispensation) is -13.1%; in data set [1] (100.0 mg/kg intraduodenally, 30 minutes after dispensation), -37.9%; in data set [1] (200.0 mg/kg intraduodenally, 30 minutes after dispensation), -35.0%. Also, the “Spasmolytic activity (in words)” value in data set [1] is listed as “no dosage dependent spasmolytic activity”. For the same compound, the “Spasmolytic Effect, Retardation in %” value is -8.16% in data set [2] (30.0 mg/kg peroral), -58.39% in data set [2] (100.0 mg/kg peroral) and -61.62% in data set [2] (300.0 mg/kg peroral).

On to `CCOC(=O)Nc1ccc(NCc2ccc(F)cc2)nc1N` [Flupirtin (Gluconate), 2-amino-3-carbethoxyamino-6-(4-fluoro-benzylamino)-pyridine], for which the “Analgetic Effect in %” value in data set [4] (0.56 mg/kg per os) is 19.2%; in data set [4] (1.12 mg/kg per os), 28.0%; in data set [4] (2.24 mg/kg per os), 37.6%; in data set [4] (4.47 mg/kg per os), 46.4%; in data set [4] (8.93 mg/kg per os) it was 38.4%; in data set [4] (17.85 mg/kg per os), 22.4%. The “Analgetic Effect in %” value in data set [4] (35.7 mg/kg per os) worked out at 61.6%.

For the compound `CC[N+](C)(CC)CCOC(C)(c1ccccc1)C1CC2C=CC1C2.[Br-]` (stereo not shown) [Ciclonium bromide], the “Analgetic Effect in %” value in data set [4] (0.01 mg/kg per os) is 18.5%; in data set [4] (0.1 mg/kg per os) it was 46.3%; in data set [4] (0.5 mg/kg per os) it was 53.1%. Moreover, in data set [4] (per os, linear regression), the “ED50 after 30 minutes” value amounted to 0.26 mg/kg.

As for `CCOC(=O)Nc1ccc(NCc2ccc(F)cc2)nc1N` [Flupirtin (HCl), 2-amino-3-carbethoxyamino-6-(4-fluoro-benzylamino)-pyridine], the median effective dose (ED50) is 2.4 mg/kg in data set [3] and “not dosage depen-” in data set [2]. Further, the “Spasmolytic Effect in %” value in data set [3] (1.0 mg/kg peroral) was found to be 30.06%; in data set [3] (3.0 mg/kg peroral), 64.36%; in data set [3] (10.0 mg/kg peroral) it was 69.25%. Besides, the “Spasmolytic Effect, Retardation in %” value is -11.73% in data set [2] (20.0 mg/kg peroral), -21.55% in data set [2] (40.0 mg/kg peroral) and -18.70% in data set [2] (80.0 mg/kg peroral).

Regarding `CCOC(=O)Nc1ccc(NCc2ccc(F)cc2)nc1N` [Flupirtin (Maleate), 2-amino-3-carbethoxyamino-6-(4-fluoro-benzylamino)-pyridine], the ED50 in data set [4] (per os, linear regression) turned out to be 44.7 mg/kg. In addition, the “Analgetic Effect in %” value is 12.0% in data set [4] (20.0 mg/kg per os), 54.0% in data set [4] (40.0 mg/kg per os) and 70.0% in data set [4] (80.0 mg/kg per os). For the same compound, the “Spasmolytic effect / ED50 (in words)” value in data set [1] (alone, 10.0, 30.0 and 50.0 mg/kg intraduodenally, 30 minutes after dispensation) is “no spasmolytic”.
